Results from US7342039B2, “Substituted indole oximes” (Wyeth, priority 2003, dated 2008).

Legend:
[1] = molecular target: T1, recombinant human plasminogen activator inhibitor-1 (PAI-1) (Homo sapiens, UniProt P05121); experiment: Screening for PAI-1 inhibition (chromogenic residual tPA activity, Spectrozyme-tPA); assay type: biochemical; conditions: 25 μM test compound; 140 nM PAI-1, 70 nM tPA, pH 6.6
T1 construct: purchased Molecular Innovations, Royal Oak, Mich
Method: Screening for PAI-1 inhibition. Test compounds are dissolved in DMSO at a final concentration of 10 mM, then diluted 100× in physiologic buffer. The inhibitory assay is initiated by the addition of the test compound (1-100 μM final concentration, maximum DMSO concentration of 0.2%) in a pH 6.6 buffer containing 140 nM recombinant human plasminogen activator inhibitor-1 (PAI-1; Molecular Innovations, Royal Oak, Mich.). Following a 1 hour incubation at room temperature, 70 nM of recombinant human tissue plasminogen activator (tPA) is added, and the combination of the test compound, PAI-1 and tPA is incubated for an additional 30 minutes. Following the second incubation, Spectrozyme-tPA (American Diagnostica, Greenwich, Conn.), a chromogenic substrate for tPA, is added and absorbance read at 405 nm at 0 and 60 minutes. Relative PAI-1 inhibition is equal to the residual tPA activity in the presence of the test compounds and PAI-1. Control treatments include the complete inhibition of tPA by PAI-1 at the molar ratio employed (2:1), and the absence of any effect of the test compound on tPA alone.

human PAI-1 = human PAI-1 (Homo sapiens, UniProt P05121); experiment: Assay for determining the IC50 of inhibition of PAI-1 (antibody detection of active PAI-1 bound to tPA-coated plate); assay type: binding; conditions: human PAI-1 50 ng/ml, pH 7.5
Chain of human PAI-1 (P05121 24-402): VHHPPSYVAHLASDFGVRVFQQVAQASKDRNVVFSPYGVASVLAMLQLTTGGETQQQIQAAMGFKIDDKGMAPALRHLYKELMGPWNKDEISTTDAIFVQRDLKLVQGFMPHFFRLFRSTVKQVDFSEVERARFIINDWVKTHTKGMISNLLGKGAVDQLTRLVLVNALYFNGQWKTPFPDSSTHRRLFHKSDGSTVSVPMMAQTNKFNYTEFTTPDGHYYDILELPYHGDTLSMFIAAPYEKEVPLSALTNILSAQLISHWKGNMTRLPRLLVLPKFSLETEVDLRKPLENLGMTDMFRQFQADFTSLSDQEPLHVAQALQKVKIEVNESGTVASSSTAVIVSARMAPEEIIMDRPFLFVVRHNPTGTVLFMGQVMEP
Method: Assay for determining the IC50 of inhibition of PAI-1. This assay is based upon the non-SDS dissociable interaction between tPA and active PAI-1. Assay plates are initially coated with human tPA (10 μg/ml). Test compounds are dissolved in DMSO at 10 mM, then diluted with physiologic buffer (pH 7.5) to a final concentration of 1-50 μM. The test compounds are incubated with human PAI-1 (50 ng/ml) for 15 minutes at room temperature. The tPA-coated plate is washed with a solution of 0.05% Tween 20 and 0.1% BSA, then the plate is blocked with a solution of 3% BSA. An aliquot of the test compound/PAI-1 solution is then added to the tPA-coated plate, incubated at room temperature for 1 hour, and washed. Active PAI-1 bound to the plate is assessed by adding an aliquot of a 1:1000 dilution of the 33B8 monoclonal antibody against human PAI-1, and incubating the plate at room temperature for 1 hour (Molecular Innovations, Royal Oak, Mich.). The plate is again washed, and a solution of goat anti-mouse IgG-alkaline phosphatase conjugate is added at a 1:50,000 dilution in goat serum. The plate is incubated 30 minutes at room temperature, washed, and a solution of alkaline phosphatase substrate is added. The plate is incubated 45 minutes at room temperature, and color development is determined at OD405 nm. The quantitation of active PAI-1 bound to tPA at varying concentrations of the test compound is used to determine the IC50. Results are analyzed using a logarithmic best-fit equation. The assay sensitivity is 5 ng/ml of human PAI-1 as determined from a standard curve ranging from 0-100 ng/ml.

T1 sequence (P05121 24-402): as above

Structure (SMILES) | inhibition at 25 µM [1] [%] | melting point | IC50 (human PAI-1) [µM]
Cc1c(/C=N/OCCCOc2ccc(CC(=O)O)cc2)c2ccccc2n1C [Compound 7, {4-[3-({[(1E)-(1,2-dimethyl-1H-indol-3-yl)methylidene]amino}oxy)propoxy]phenyl}acetic acid] | 54 | – | –
O=C(O)c1ccc(CO/N=C/c2cc3ccccc3n2Cc2ccccc2)cc1Br [Compound 4, 4-[({[(1E)-(1-benzyl-1H-indol-2-yl)methylidene]amino}oxy)methyl]-2-bromobenzoic acid] | – | 148 to 149 °C | 12.3
O=C(O)c1ccc(OCCCO/N=C/c2cc3ccccc3n2Cc2ccccc2)c(-c2ccc(C(F)(F)F)cc2)c1 [Compound 8, 6-[3-({[(1E)-(1-benzyl-1H-indol-2-yl)methylidene]amino}oxy)propoxy]-4′-(trifluoromethyl)-1,1′-biphenyl-3-carboxylic acid] | 100 | 196 to 197 °C | –
Cc1c(/C=N/OCc2ccc(C(=O)O)c(Br)c2)c2ccccc2n1C [Compound 9, 2-bromo-4-[({[(1E)-(1,2-dimethyl-1H-indol-3-yl)methylidene]amino}oxy)methyl]benzoic acid] | 34 | 165 to 166 °C | –
O=C(O)c1ccc(CO/N=C/c2cn(Cc3ccccc3)c3ccccc23)cc1Br [Compound 3, 4-[({[(1E)-(1-benzyl-1H-indol-3-yl)methylidene]amino}oxy)methyl]-2-bromobenzoic acid] | – | – | 29.2

Now from value to molecule:

inhibition at 25 µM [1] [%] | melting point | IC50 (human PAI-1) [µM] | Structure (SMILES)
55 | 193 to 194 °C | – | O=C(O)c1ccc(OCCCO/N=C/c2cn(Cc3ccccc3)c3ccccc23)c(-c2ccc(C(F)(F)F)cc2)c1 [Compound 6, 6-[3-({[(1E)-(1-benzyl-1H-indol-3-yl)methylidene]amino}oxy)propoxy]-4′-(trifluoromethyl)-1,1′-biphenyl-3-carboxylic acid]
– | – | 11.8 | CC(C)(C)c1ccc(C(=O)Nc2cc(OCCCO/N=C/c3cn(Cc4ccccc4)c4ccccc34)ccc2C(=O)O)cc1 [Compound 1, 4-[3-({[(1E)-(1-benzyl-1H-indol-3-yl)methylidene]amino}oxy)propoxy]-2-[(4-tert-butylbenzoyl)amino]benzoic acid]
– | 175 to 176 °C (dec.) | 22.4 | O=C(O)c1ccc(OCCCO/N=C/c2cc3ccccc3n2Cc2ccccc2)cc1O [Compound 5, 4-[3-({[(1E)-(1-benzyl-1H-indol-2-yl)methylidene]amino}oxy)propoxy]-2-hydroxybenzoic acid]
– | – | 21.6 | O=C(O)c1ccc(OCCCO/N=C/c2cn(Cc3ccccc3)c3ccccc23)cc1O [Compound 2, 4-[3-({[(1E)-(1-benzyl-1H-indol-3-yl)methylidene]amino}oxy)propoxy]-2-hydroxybenzoic acid]
